Measured values from patent US20030203372A1, “Analysis method” (priority 2000, published 2003).
Blank lines part the entries; values can stand above or below the substance they belong to.

Experiments:
[1] = Hypoxia response of the referenced genes/sequences, summary in cross-reference Table 26; assay type: cell-based, human; conditions: direction of expression change of the gene/sequence in response to hypoxia
[2] = test system: primary human cell cultures (11 cell types); test: Custom gene array, 11 human cell types in normoxia or hypoxia for 6 hr and 18 hr; assay type: cell-based
Description: Equivalent cultures of non-immortalized, non-transformed primary human cells of 10 distinct types, were cultured in either normoxia or were exposed to hypoxia for 6 hr and 18 hr, and gene expression changes were determined. […] Moreover, unlike the vast majority of information in the public domain relating to genes responsive to hypoxia, all of these cells were human and were cultured without any modifications following isolation from the human donors.
A non-primary cell type (#9) was used to represent neurons, since primary human neurons are difficult to source. Therefore a total of 11 cell types are compared. It should be noted that RNA from hepatocytes at the […] timepoint of hypoxia was not available for this work.
Each RNA sample was hybridised to duplicate or triplicate arrays, to ensure reproducible data, and was analysed using GeneSpring software. Data from replicate arrays were merged during analysis to generate mean values. Data normalisation was achieved per-array using the aforementioned list of control genes, such that differences in RNA labelling or hybridization due to experimental variation were corrected by referencing each gene to the mean value of the reference genes on the same array. Also, for each gene, expression values were obtained which represent the value in each experimental condition (e.g. macrophages 6 hr hypoxia) as compared to the median of value of that gene throughout the full range of experimental conditions (i.e. from all cell types). […] This is common in microarray data analysis.

[3] = test system: primary human macrophages; test: Custom gene array, macrophages exposed to hypoxia and/or TNFα; assay type: cell-based; conditions: relative to no cytokine, 20% oxygen = 1

Substance: Osteopontin
Hypoxia response [1]: Increase

Substance: p1G10
mRNA expression level ([2]; cell type #1, HY (hypoxia) 6 hr): 0.61
mRNA expression level ([2]; cell type #1, HY (hypoxia) 18 hr): 1.52
mRNA expression level ([2]; cell type #1, NO (normoxia)): 1.01
mRNA expression level ([2]; cell type #2, HY (hypoxia) 6 hr): 1.76
mRNA expression level ([2]; cell type #2, HY (hypoxia) 18 hr): 1.65
mRNA expression level ([2]; cell type #2, NO (normoxia)): 1.69
mRNA expression level ([2]; cell type #3, HY (hypoxia) 6 hr): 3.58
mRNA expression level ([2]; cell type #3, HY (hypoxia) 18 hr): 2.49
mRNA expression level ([2]; cell type #3, NO (normoxia)): 2.01
mRNA expression level ([2]; cell type #4, HY (hypoxia) 6 hr): 1.13
mRNA expression level ([2]; cell type #4, HY (hypoxia) 18 hr): 0.99
mRNA expression level ([2]; cell type #4, NO (normoxia)): 1.32
mRNA expression level ([2]; cell type #5, HY (hypoxia) 6 hr): 0.65
mRNA expression level ([2]; cell type #5, NO (normoxia)): 0.44
mRNA expression level ([2]; cell type #6, HY (hypoxia) 6 hr): 0.62
mRNA expression level ([2]; cell type #6, NO (normoxia)): 0.44

Substance: Endothelin 1
Hypoxia response [1]: Repression

Fatty-acid-Coenzyme A ligase, long-chain 2 expression (clone p1J11, Seq ID 466) ([3]; 0.1% oxygen): 1.28
Glucose phosphate isomerase expression (clone p1C6, Seq ID 368) ([3]; 0.1% oxygen): 1.43
Neutral sphingomyelinase (N-SMase) activation associated factor expression (clone p1J22, Seq ID 428) ([3]; 0.1% oxygen): 0.11
Fatty-acid-Coenzyme A ligase, long-chain 2 expression (clone p1J11, Seq ID 466) ([3]; 20% oxygen): 1.63
Glucose phosphate isomerase expression (clone p1C6, Seq ID 368) ([3]; 20% oxygen): 2.14
Substance: IL-17
Decidual protein induced by progesterone expression (clone p1C16, Seq ID 388) ([3]; 0.1% oxygen): 0.51
EST expression (clone p1H4, Seq ID 214) ([3]; 0.1% oxygen): 0.58
EST expression (clone p2A14, Seq ID 446) ([3]; 0.1% oxygen): 0.40
GAPDH expression (clone p1A11, Seq ID 254) ([3]; 0.1% oxygen): 1.84
GRO1 expression (clone p1I24, Seq ID 486) ([3]; 0.1% oxygen): 1.28
GRO2 expression (clone p1I19, Seq ID 482) ([3]; 0.1% oxygen): 1.43
Interleukin 8 expression (clone p1B14, Seq ID 252) ([3]; 0.1% oxygen): 7.13
Interleukin 8 expression (clone p1B15, Seq ID 252) ([3]; 0.1% oxygen): 9.71
Interleukin 8 expression (clone p1B16, Seq ID 252) ([3]; 0.1% oxygen): 12.2
Plasminogen activator inhibitor, type 1 expression (clone p1B18, Seq ID 236) ([3]; 0.1% oxygen): 0.78
SCYA2 expression (clone p1P5, Seq ID 396) ([3]; 0.1% oxygen): 0.58
SCYA4 expression (clone p1K8, Seq ID 408) ([3]; 0.1% oxygen): 0.83
cDNA YI27F12 expression (clone p1E15, Seq ID 108) ([3]; 0.1% oxygen): 0.56
hypothetical protein FLJ10206 expression (clone p1J6, Seq ID 40) ([3]; 0.1% oxygen): 0.23
Decidual protein induced by progesterone expression (clone p1C16, Seq ID 388) ([3]; 20% oxygen): 0.73
EST expression (clone p1H4, Seq ID 214) ([3]; 20% oxygen): 0.49
EST expression (clone p2A14, Seq ID 446) ([3]; 20% oxygen): 0.56
GAPDH expression (clone p1A11, Seq ID 254) ([3]; 20% oxygen): 2.60
GRO1 expression (clone p1I24, Seq ID 486) ([3]; 20% oxygen): 2.29
GRO2 expression (clone p1I19, Seq ID 482) ([3]; 20% oxygen): 2.26
Glycogen synthase 1 expression (clone p1G24, Seq ID 276) ([3]; 20% oxygen): 0.34
Hypoxia-inducible protein 2 expression (clone p1D8, Seq ID 272) ([3]; 20% oxygen): 0.44
Interleukin 8 expression (clone p1B14, Seq ID 252) ([3]; 20% oxygen): 9.34
Interleukin 8 expression (clone p1B15, Seq ID 252) ([3]; 20% oxygen): 7.36
Interleukin 8 expression (clone p1B16, Seq ID 252) ([3]; 20% oxygen): 9.52
Plasminogen activator inhibitor, type 1 expression (clone p1B18, Seq ID 236) ([3]; 20% oxygen): 0.49
SCYA2 expression (clone p1P5, Seq ID 396) ([3]; 20% oxygen): 2.12
SCYA4 expression (clone p1K8, Seq ID 408) ([3]; 20% oxygen): 2.48
hypothetical protein FLJ10206 expression (clone p1J6, Seq ID 40) ([3]; 20% oxygen): 0.22

Substance: Vascular endothelial growth factor
Hypoxia response [1]: Increase
